Consider one substance from US9486405B2, “Methods for the treatment of pediatric otic disorders” (Otonomy, Inc., priority 2013, dated 2016).

Data set [1] deals with inner and outer hair cells. In words: Inner ear cytocochleogram, one-month acute ototoxicity study. Type of data set: in vivo, guinea pig. The conditions noted are these: at termination; 2% and 6% single IT-ANT; drops twice daily for 7 days; gentamicin single IT-ANT. On the procedure: (§1) At termination, functional and anatomic assessments of the middle and inner ear compartments were conducted.
Inner ear cytocochleogram—The left ear cochleae were carefully removed from the temporal bones and then further dissected, first removing the bony otic capsule, followed by removal of lateral wall tissues, including spiral ligament and stria vascularis. The tectorial membrane was then removed and the cochleae placed in a solution of rhodamine labeled phalloidin, diluted 1:100 in phosphate buffered saline (PBS), for 30-120 min, in the dark, followed by two washes in PBS. The cochlear sensory neural epithelium was then dissected away from the modiolus, starting at the apex, to produce surface preparations of the cochlear spiral. Each segment was mapped for location and placed on a slide. A quantitative assessment of presence or absence of hair cells was then carried out, beginning at apex and proceeding to the base, to produce a cytocochleogram, with presence or absence or hair cells mapped by position along the cochlear spiral.

The nature of data set [2]: Middle ear histology, one-month acute ototoxicity study. It is filed as in vivo, guinea pig. The conditions noted are these: at termination; Composition A 2% and 6% single IT-ANT; drops twice daily for 7 days; gentamicin single IT-ANT. On the procedure: as §1
Histological analysis of middle ear paraffin sections was conducted at termination.
Middle ear histology—Guinea pigs received vascular perfusion through the heart with an isotonic saline solution followed by fixative containing 4% paraformaldehyde (PFA) in phosphate buffer. Left and right temporal bones were removed and trimmed. Left ear cochleae were designated for inner ear assessment and the right ear cochleae for middle ear histology. Cochleae of the left ear were fixed by intrascalar perfusion of 4% PFA. The temporal bones were then placed in 4% PFA for approximately 1 hour and transferred to a vial containing 0.5% PFA in phosphate buffer. The right temporal bones were trimmed, and then each was placed in a cassette containing 5% EDTA in phosphate buffer. The cassettes were placed into a PELCO 3451 Microwave System, running constantly for 3-5 days. Ears were then dehydrated in EtOH and processed in JB-4 Glycol Methacrylate resin, placed into molds containing the resin and polymerized at ˜4° C. for ˜12 h. Blocks containing temporal bones were trimmed and 5 μm sections were cut with a Leica RM2165 Microtome and stained with Paragon stain. Sections were examined under bright field optics. Middle ear sections were assessed for tissue reaction and inflammatory response. […]

As for gentamicin, the “hair cell loss (cytocochleogram)” value in data set [1] is reported as “profound to complete hair cell loss”. For the same substance, in data set [2], the “middle ear histology finding” value is recorded as “moderate chronic inflammation”.
